Measured values published in BindingDB's records for patent US11944616 (Institut National De La Sante Et De La Recherche Medicale …, 2024).

Target: Glutamate receptor ionotropic, NMDA 1 (Rattus norvegicus, UniProt P35439)
Assay: In Vitro Activity Assay
Text: In Vitro Activity: Evaluation of NMDAR Blocking Activity Using Patch-ClampPrevious studies have shown that the NMDAR exists in the peripheral vasculature.All NMDAR subunits were examined by RT-PCR and sequencing in the peripheral endothelium and peripheral vascular smooth muscle cells.

CC[N@@+]1(CCO)[C@H]2Cc3ccccc3[C@@]1(C)c1ccccc12 [US11944616, Compound 27]
IC50: 360 nM
